Article PMC11289166 (Biochemistry, 2024)
“Also recorded” adds a separate entry of the source. Ends that are not written are not given here. * marks the point of attachment. MTSL = nitroxide spin label, CC1(C)C=C(CS*)C(C)(C)N1[O]

Experiments:
CRY Asn253Ala/Gln254Ala [1] = target: T1, CRY Asn253Ala/Gln254Ala (Drosophila melanogaster, UniProt O77059, N253A/Q254A); type: binding; conditions: fluorescence polarization; dark and light
[2] = target: CRY Full-Length (residues 1-539) (Drosophila melanogaster, UniProt O77059); type: binding; conditions: fluorescence polarization; dark and light
Chain of CRY Full-Length (residues 1-539) (O77059 1-539): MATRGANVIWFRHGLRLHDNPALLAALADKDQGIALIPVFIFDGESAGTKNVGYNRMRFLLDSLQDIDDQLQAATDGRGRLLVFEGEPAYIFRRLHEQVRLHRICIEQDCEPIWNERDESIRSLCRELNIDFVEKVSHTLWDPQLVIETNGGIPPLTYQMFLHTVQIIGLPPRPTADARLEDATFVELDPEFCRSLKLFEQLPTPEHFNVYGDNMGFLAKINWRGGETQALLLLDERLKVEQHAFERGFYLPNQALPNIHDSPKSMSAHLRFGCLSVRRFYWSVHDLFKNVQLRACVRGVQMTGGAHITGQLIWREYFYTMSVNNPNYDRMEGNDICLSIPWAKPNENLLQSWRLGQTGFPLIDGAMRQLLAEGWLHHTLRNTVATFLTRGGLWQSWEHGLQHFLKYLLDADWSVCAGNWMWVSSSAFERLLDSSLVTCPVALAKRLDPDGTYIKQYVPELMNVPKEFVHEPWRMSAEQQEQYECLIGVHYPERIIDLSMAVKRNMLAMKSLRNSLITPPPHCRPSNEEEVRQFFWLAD

CRYΔ (residues 1-520) = CRYΔ (residues 1-520) (Drosophila melanogaster, UniProt O77059); type: binding; conditions: fluorescence polarization; dark and light
Chain of CRYΔ (residues 1-520) (O77059 1-520, stated change not applied): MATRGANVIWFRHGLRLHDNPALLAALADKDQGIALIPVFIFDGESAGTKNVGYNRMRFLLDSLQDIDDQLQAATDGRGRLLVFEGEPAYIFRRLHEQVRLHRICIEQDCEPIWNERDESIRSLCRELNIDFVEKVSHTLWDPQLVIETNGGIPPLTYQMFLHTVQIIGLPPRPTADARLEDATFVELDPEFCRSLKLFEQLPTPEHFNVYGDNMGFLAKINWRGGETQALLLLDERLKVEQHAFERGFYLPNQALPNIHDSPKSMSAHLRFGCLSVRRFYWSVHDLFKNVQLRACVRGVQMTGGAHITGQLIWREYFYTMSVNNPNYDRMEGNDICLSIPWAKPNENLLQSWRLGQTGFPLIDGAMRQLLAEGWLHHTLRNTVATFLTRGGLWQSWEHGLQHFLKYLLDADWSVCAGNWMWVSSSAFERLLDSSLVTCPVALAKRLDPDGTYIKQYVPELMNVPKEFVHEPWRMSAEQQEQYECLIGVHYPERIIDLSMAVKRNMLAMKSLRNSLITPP

CRY Arg237Ala = CRY Arg237Ala (Drosophila melanogaster, UniProt O77059, R237A); type: binding; conditions: fluorescence polarization; dark and light
Chain of CRY Arg237Ala (O77059 1-539 R237A): as the sequence (O77059 1-539) above, with R237A counted along it

CRY Asn253Ala/Gln254Ala [3] = target: T1, CRY Asn253Ala/Gln254Ala; conditions: DEER; light state and dark-state proxy; compared with WT CRYΔ
CRYΔ = conditions: ref [20]-[22]; cited from earlier work

T1 sequence (O77059 1-539 N253A/Q254A): as the sequence (O77059 1-539) above, with N253A, Q254A counted along it

## MDWLLATPQLYSAFSSLGC [S-TIMN]
CRY Asn253Ala/Gln254Ala [1]
  binding to Asn253Ala/Gln254Ala (in words): bound both in dark and light, with stronger binding and a larger fraction of binding in the dark
[2]
  binding to full-length CRY (in words): bound to full-length CRY (residues 1-539) only in light with an affinity similar to that seen for CRYΔ in light
CRYΔ (residues 1-520)
  binding to CRYΔ (in words): bound S-TIMN in both dark and light, but with somewhat higher affinity in the light; also recorded: reasonably high affinity in the dark and even tighter affinity in the light; also recorded: more strongly in light than dark
CRY Arg237Ala
  binding to Arg237Ala (in words): no detectable binding of S-TIMN in either dark or light; also recorded: does not bind to CRY in either dark or light

## S-TIMN-SL: S-TIMN spin-labeled with MTSL (MDWLLATPQLYSAFSSLGC(MTSL))
CRY Asn253Ala/Gln254Ala [3]
  interaction of spin-labeled S-TIMN with Asn253Ala/Gln254Ala (in words): considerably different than that observed for WT CRYΔ

B1: full-length TIM: Drosophila core oscillator protein Timeless (protein, UniProt P49021 1-1398, looked up)
chain: MDWLLATPQLYSAFSSLGCLEGDTYVVNPNALAILEEINYKLTYEDQTLRTFRRAIGFGQNVRSDLIPLLENAKDDAVLESVIRILVNLTVPVECLFSVDVMYRTDVGRHTIFELNKLLYTSKEAFTEARSTKSVVEYMKHILESDPKLSPHKCDQINNCLLLLRNILHIPETHAHCVMPMMQSMPHGISMQNTILWNLFIQSIDKLLLYLMTCPQRAFWGVTMVQLIALIYKDQHVSTLQKLLSLWFEASLSESSEDNESNTSPPKQGSGDSSPMLTSDPTSDSSDNGSNGRGMGGGMREGTAATLQEVSRKGQEYQNAMARVPADKPDGSEEASDMTGNDSEQPGSPEQSQPAGESMDDGDYEDQRHRQLNEHGEEDEDEDEVEEEEYLQLGPASEPLNLTQQPADKVNNTTNPTSSAPQGCLGNEPFKPPPPLPVRASTSAHAQMQKFNESSYASHVSAVKLGQKSPHAGQLQLTKGKCCPQKRECPSSQSELSDCGYGTQVENQESISTSSNDDDGPQGKPQHQKPPCNTKPRNKPRTIMSPMDKKELRRKKLVKRSKSSLINMKGLVQHTPTDDDISNLLKEFTVDFLLKGYSYLVEELHMQLLSNAKVPIDTSHFFWLVTYFLKFAAQLELDMEHIDTILTYDVLSYLTYEGVSLCEQLELNARQEGSDLKPYLRRMHLVVTAIREFLQAIDTYNKVTHLNEDDKAHLRQLQLQISEMSDLRCLFVLLLRRFNPSIHSKQYLQDLVVTNHILLLILDSSAKLGGCQTIRLSEHITQFATLEVMHYYGILLEDFNNNGEFVNDCIFTMMHHIGGDLGQIGVLFQPIILKTYSRIWEADYELCDDWSDLIEYVIHKFMNTPPKSPLTIPTTSLTEMTKEHNQEHTVCSWSQEEMDTLYWYYVQSKKNNDIVGKIVKLFSNNGNKLKTRISIIQQLLQQDIITLLEYDDLMKFEDAEYQRTLLTTPTSATTESGIEIKECAYGKPSDDVQILLDLIIKENKAQHLLWLQRILIECCFVKLTLRSGLKVPEGDHIMEPVAYHCICKQKSIPVVQWNNEQSTTMLYQPFVLLLHKLGIQLPADAGSIFARIPDYWTPETMYGLAKKLGPLDKLNLKFDASELEDATASSPSRYHHTGPRNSLSSVSSLDVDLGDTEELALIPEVDAAVEKAHAMASTPSPSEIFAVPKTKHCNSIIRYTPDPTPPVPNWLQLVMRSKCNHRTGPSGDPSDCIGSSSTTVDDEGFGKSISAATSQAASTSMSTVNPTTTLSLNMLNTFMGSHNENSSSSGCGGTVSSLSMVALMSTGAAGGGGNTSGLEMDVDASMKSSFERLEVNGSHFSRANNLDQEYSAMVASVYEKEKELNSDNVSLASDLTRMYVSDEDDRLERTEIRVPHYH
modifications: full-length
CRYΔ
  binding of TIM to CRYΔ (in words): binds TIM in both dark and light
